How the values were obtained:
[1] = system: GIST; test: Example 3: clinical study in second-line through fourth-line plus GIST, efficacy at ≥100 mg daily; format: in vivo, human; settings: for Objective Response Rate by Best Response Includes Unconfirmed: RECIST 1.1, investigator-assessed
Procedure: Results. Data from 178 GIST patients receiving ripretinib at doses of ≥100 mg daily are noted in Table 2. The table includes investigator-assessed objective response rate (ORR) by best response, disease control rate (DCR) and median progression free survival (mPFS), all of which were determined by Response Evaluation Criteria in Solid Tumors (RECIST) version 1.1.

[2] = system: patients with advanced GIST; test: Example 2: patient reported outcomes (EQ-5D-5L VAS, EORTC QLQ-C30); format: in vivo, human; settings: 150 mg QD
Procedure: Patient reported outcomes were assessed by EQ-5D-5L, which provides a visual analogue scale (VAS), and EORTC QLQ-C30, which provides physical function and role function scales. The EQ-5D-5L VAS (or EQ-VAS) records the respondent's overall current health on a vertical visual analogue scale and provides a quantitative measure of the patient's perception of overall health. These patient outcomes were reported across 28-day cycles of receiving 150 mg QD ripretinib or placebo.
The EORTC QLQ-C30 is an assessment of function and symptoms of therapy by cancer patient, and is not specific to any cancer. The EORTC QLQ-C30 is a 30-question plus one global health status, including 5 functional scales, 3 symptom scales and a global health status.

[3] = Solubility; format: physicochemical
[4] = system: patients with advanced GIST; test: Example 2/6: safety, treatment-emergent adverse events; format: in vivo, human
Procedure: (§1) This study was a randomized (2:1), double-blind, placebo-controlled, international, multicenter study to evaluate the safety, tolerability, and efficacy of ripretinib compared to placebo in 129 patients with advanced GIST whose previous therapies have included at least imatinib, sunitinib, and regorafenib. Patients were randomized 2:1 to either 150 mg of ripretinib or placebo once daily. The primary efficacy endpoint is progression-free survival (PFS) as determined by independent radiologic review using modified Response Evaluation Criteria in Solid Tumors (RECIST). Secondary endpoints as determined by independent radiologic review using modified RECIST include Objective Response Rate (ORR), Time to Tumor Progression (TTP) and Overall Survival (OS).
Grade 3 or 4 treatment-emergent adverse events (TEAEs) occurred in 42 (49%) patients on the ripretinib arm compared to 19 (44%) on the placebo arm. Grade 3 or 4 TEAEs>5% of patients in the ripretinib arm were anemia (9%; n=8), abdominal pain (7%; n=6) and hypertension (7%; n=6). Grade 3 or 4 TEAEs>5% of patients in the placebo arm were anemia (14%; n=6). Table 1 lists TEAEs>15% in the ripretinib arm compared to placebo.
The safety of ripretinib and the impact of alopecia and palmar-plantar erythrodysesthesia (PPES) on patient-reported outcomes (PROs) of patients treated in the study described in Example 2 herein are described. […] When stratified by alopecia and PPES, patient reported assessments of function, overall health, and overall quality of life were maintained over time.

[5] = system: advanced GIST; test: Example 2: randomized, double-blind, placebo-controlled study, efficacy (PFS, ORR, OS); format: in vivo, human; settings: for PFS by BICR: events, % / PFS by BICR: number of events: N = 85
Source text: Example 2. A Randomized, Double-blind, Placebo-controlled, International, Multicenter Study to Evaluate the Safety, Tolerability, and Efficacy of Ripretinib Compared to Placebo in Patients with Advanced GIST Whose Previous Therapies Have Included Imatinib, Sunitinib, and Regorafenib
as §1
Patients whose disease progressed during the double blind phase of the study were escalated to 150 mg BID ripretinib, continued at the 150 mg QD dose, or discontinued in an open label-phase of the study.

[6] = Example 9: food effect (high-fat meal) on exposure; format: in vivo
Procedure: The effect of a high-fat breakfast on ripretinib and Compound A exposure was evaluated. A high fat meal consisted of approximately 150, 250, and 500-600 calories from protein, carbohydrate, and fat, respectively. […] Therefore, ripretinib may be taken with or without food at approximately same time each day.

[7] = 150 mg once daily, BICR, modified RECIST 1.1
[8] = 150 mg dose with a high-fat meal

CCn1c(=O)c(-c2cc(NC(=O)Nc3ccccc3)c(F)cc2Br)cc2cnc(NC)cc21 [ripretinib]
Disease Control Rate at 3 Months ([1]; Fourth-Line (n = 60)): 73% | Median Progression Free Survival (mPFS) ([1]; Fourth-Line (n = 60)): 30 weeks | Objective Response Rate by Best Response (Confirmed Only) ([1]; Fourth-Line (n = 60)): (8%) | Objective Response Rate by Best Response Includes Unconfirmed ([1]; Fourth-Line (n = 60)): 15% | Disease Control Rate at 3 Months ([1]; Second-Line (n = 37)): 81% | Median Progression Free Survival (mPFS) ([1]; Second-Line (n = 37)): 42 weeks | Objective Response Rate by Best Response (Confirmed Only) ([1]; Second-Line (n = 37)): (22%) | Objective Response Rate by Best Response Includes Unconfirmed ([1]; Second-Line (n = 37)): 30% | Disease Control Rate at 3 Months ([1]; Third-Line (n = 31)): 80% | Median Progression Free Survival (mPFS) ([1]; Third-Line (n = 31)): 40 weeks | Objective Response Rate by Best Response (Confirmed Only) ([1]; Third-Line (n = 31)): (13%) | Objective Response Rate by Best Response Includes Unconfirmed ([1]; Third-Line (n = 31)): 23% | Disease Control Rate at 3 Months ([1]; ≥Fourth-Line (n = 110)): 66% | Median Progression Free Survival (mPFS) ([1]; ≥Fourth-Line (n = 110)): 24 weeks | Objective Response Rate by Best Response (Confirmed Only) ([1]; ≥Fourth-Line (n = 110)): (7%) | Objective Response Rate by Best Response Includes Unconfirmed ([1]; ≥Fourth-Line (n = 110)): 11% | EORTC QLQ-C30 role function score, average improvement from baseline to C2D1 ([2]; 70 patients): 3.5 | EQ-VAS score, average improvement from baseline to Cycle 2, Day 1 (C2D1) ([2]; 70 patients): 3.7 | EORTC QLQ-C30 physical function score, average improvement from baseline to C2D1 ([2]; 71 patients): 1.6 | EORTC QLQ-C30 Question C29 (overall health) score improvement ([2]; scale 1 to 7, 70 patients): 0.20 | EORTC QLQ-C30 Question C30 (overall quality of life) score improvement ([2]; scale 1 to 7, 70 patients): 0.28 | Solubility [3]: pH-dependent solubility | Alopecia in females (females vs males) ([4]; female, human, in vivo): 56.8% | Grade 3 or 4 abdominal pain: patients, % ([4]; human, in vivo): 7% | Grade 3 or 4 abdominal pain: patients, number ([4]; human, in vivo): 6 | Grade 3 or 4 anemia: patients, number ([4]; human, in vivo): 8 | Grade 3 or 4 hypertension: patients, % ([4]; human, in vivo): 7% | Grade 3 or 4 hypertension: patients, number ([4]; human, in vivo): 6 | Patients with a TEAE leading to dose interruption ([4]; human, in vivo): 23.5% | Patients with a TEAE leading to dose reduction ([4]; human, in vivo): 7.1% | Grade 3/4 alopecia ([4]; in vivo): no patients | Grade 3 PPES ([4]; in vivo): no patients | Overall safety and tolerability profile ([4]; in vivo): favorable overall safety and tolerability profile | Serious adverse events of alopecia or PPES ([4]; in vivo): no serious adverse events | TEAEs during the crossover period ([4]; in vivo): no safety concerns | Alopecia in males (females vs males) ([4]; male, human, in vivo): 43.2% | Patients with a TEAE leading to death ([4]; ripretinib arm): 5.9% | Benefit over placebo (PFS, OS), primary Exon 11 and Exon 9 mutation ([5]; 150 mg QD, FIGS. 17A, 17B): derive a benefit | OS hazard ratio (HR) vs placebo ([5]; 150 mg once daily): 0.36 | OS rate at 12 months ([5]; 150 mg once daily): 65.4% | PFS hazard ratio (HR) compared to placebo ([5]; 150 mg once daily): 0.15 | PFS rate at 6 months ([5]; 150 mg once daily): 51% | Patients with PD, % ([5]; 150 mg once daily): 18.8% | Patients with PD, number ([5]; 150 mg once daily): 16 | Patients with stable disease (SD) for 12 weeks, number ([5]; 150 mg once daily): 40 | Reduction of risk of disease progression or death compared to placebo ([5]; 150 mg once daily): 85% | Median PFS [5, 7]: 6.3 months | Objective response rate (ORR) [5, 7]: 9.4% | Median PFS ([5]; 150 mg once daily, initial ripretinib arm): 27.6 weeks | Median OS ([5]; 150 mg once daily, patients initially randomized to ripretinib): 15.1 months | PFS compared to placebo in subgroups with Exon 9, 11, 13 or 17 KIT mutations ([5]; FIG. 26A-D): PFS benefit in all assessed patient subgroups | PFS by BICR: events, % ([5]; double-blind cut): (60) % | PFS by BICR: number of events ([5]; double-blind cut): 51 | PFS by BICR: events, % ([5]; open-label cut): (75) % | PFS by BICR: number of events ([5]; open-label cut): 64 | Median OS ([5]; double-blind cut): 15 months | Median PFS by BICR ([5]; double-blind cut): 6.3 months | OS hazard ratio ([5]; double-blind cut): 0.36 | Overall Response Rate by BICR ([5]; double-blind cut): 9% | Overall Survival: deaths, % ([5]; double-blind cut): (31) % | Overall Survival: number of deaths ([5]; double-blind cut): 26 | PFS by BICR: deaths, % ([5]; double-blind cut): (6) % | PFS by BICR: deaths, number ([5]; double-blind cut): 5 | PFS by BICR: progressive disease, % ([5]; double-blind cut): (54) % | PFS by BICR: progressive disease, number ([5]; double-blind cut): 46 | PFS hazard ratio ([5]; double-blind cut): 0.15 | Median OS ([5]; open-label cut): Not Reached | Median PFS by BICR ([5]; open-label cut): 6.3 months | OS hazard ratio ([5]; open-label cut): 0.43 | Overall Response Rate by BICR ([5]; open-label cut): 12% | Overall Survival: deaths, % ([5]; open-label cut): (45) % | Overall Survival: number of deaths ([5]; open-label cut): 38 | PFS by BICR: deaths, % ([5]; open-label cut): (7) % | PFS by BICR: deaths, number ([5]; open-label cut): 6 | PFS by BICR: progressive disease, % ([5]; open-label cut): (68) % | PFS by BICR: progressive disease, number ([5]; open-label cut): 58 | PFS hazard ratio ([5]; open-label cut): 0.16 | Median PFS ([5]; patients crossed over from placebo to ripretinib): 20.0 weeks | Median OS ([5]; patients who crossed over from placebo to ripretinib): 11.6 months | AUC0-24h higher by [6, 8]: 30% | Cmax higher by [6, 8]: 22% | Clinical significance of the food effect ([6]; based on exposure-response analysis): not considered to be clinically significant

— patent publication US12318373B2, “Methods of treating gastrointestinal stromal tumors” (Deciphera Pharmaceuticals, LLC, priority 2019, dated 2025)
